One assay relates to BMMφ. Kind of assay: Cytokine ELISA (IL-10, IL-12) after HDAC inhibitor treatment of BMMφ stimulated with LPS+IC. It counts as cell-based, mice. The note with it: TSA added to BMMφ for 1 hr, washed, then 10 ng/ml LPS+IC for 6 hrs. As to the method: FIG. 21 is a graph showing cytokine production following histone deacetylation. TSA was added to BMMφ for 1 hr and the cells were then washed with warmed medium before stimulation with 10 ng/ml LPS+IC. After LPS+IC stimulation for 6 hrs, the supernatants were collected and IL-10 and IL-12 were measured by ELISA. Results shown are one representative from two independent experiments conducted in triplicate (mean±SD).
To further examine histone acetylation, macrophages were treated with increasing doses of the HDAC inhibitor, TSA, prior to stimulation. IL-10 levels were measured 6 hrs later. […] This observation is consistent with the hypothesis that an increase in histone H3 acetylation was not a pre-requisite for IL-10 gene transcription following stimulation by LPS+IC.

A further assay concerns IL-10 promoter. Kind of assay: ChIP of histone H3 phosphorylation at the IL-10 promoter in stimulated BMMφ. The class given is cell-based, mice. The note with it: BMMφ pretreated 30 min with PD98059 10 μM or SB203580 1 μM, then IgG-OVA + LPS for 40 min. The method, then: BMMφ were stimulated with medium (open bars), LPS (solid bars) or E-IgG+LPS (striped bars) for 15 minutes (A), or the indicated times (B) and ChIP assays were carried out as described in Materials and Methods. Immunoprecipitations utilized antibodies specific to phospho-H3 (left panel) or acetyl-H3 (right panel). A. conventional RT-PCR and B. real time PCR were carried out using IL-10 promoter or IL-12p40 promoter specific primers. For real time PCR, samples were normalized to input DNA controls.
Cells were pretreated with PD98059 (10 μM), SB203580 (1 μM) or medium for 30 min then stimulated with medium (open bar), IgG-OVA (dotted bar), LPS (solid bar), or both (striped bars) for 40 min. ChIP analysis was carried out using a phospho-H3 specific Ab. A. Conventional RT-PCR was carried out using IL-10 promoter or IL-12p40 promoter specific primers. B. Real time PCR analysis of samples obtained in A. Samples were normalized to input DNA controls.
FIG. 22 is a graph showing Inhibition of histone modifications by blocking ERK. BMMφ were pre-treated with PD98059 (15 μM) (solid bars) or drug vehicle (open bars) for 1 hour and then stimulated with IC plus LPS (10 ng/mL). Cross-linked chromatin fragments were immunoprecipitated with antibody to phosphorylated histone H3 at Ser 10 or antibody to Sp1. The DNA was purified and analyzed for the presence of IL-10 promoter sequences corresponding to nucleosome −2 by QRT-PCR. The data were plotted graphically as the percentage change relative to drug vehicle (IC/LPS) at 30 min post-stimulation for histone H3 phosphorylation, and at 45 min post-stimulation for Sp1 recruitment. One representative from two independent experiments is presented.
Chromatin immunoprecipitation (ChIP). ChIPs were carried out using the ChIP Assay kit following the manufacturer's protocol (Upstate USA, Inc., Lake Placid, N.Y.). Briefly, 1×10^6 BMMφ were plated overnight in 6-well plates. Cells were stimulated as described in Figure Legends then fixed for 10 min at 37° C. in paraformaldehyde (1% final concentration). […]

Assay [1] concerns bone marrow derived macrophages (BMMφ). Description: Cytokine ELISA on supernatants of stimulated bone marrow derived macrophages (LPS ± E-IgG).
A further assay concerns ERK1/2. Kind of assay: Western blot of ERK activation (phospho-ERK) in macrophages. The class given is cell-based, mice. The note with it: macrophages stimulated with LPS 10 ng/ml plus the agent, versus LPS alone. The method, then: FIG. 1 is a Western blot showing the kinetics of MAPK activation in bone marrow derived macrophages (BMMφ) stimulated with (LPS) alone or LPS in combination with E-IgG, an immune complex that ligates the FcγR. BMMφ were stimulated with LPS (10 ng/ml)±E-IgG. Cells were then lysed at the indicated times and equal amounts of whole cell lysates were separated by SDS PAGE and analyzed by Western blotting using phospho-specific Abs to ERK1/2, p38 or JNK. Total ERK1/2 (bottom panel) was used as the loading control.
Western blots. 2×10^6 BMMφper well were plated overnight in 60 mm culture dishes. […]
Cells were lysed at various indicated times and ERK activation was measured by Western Blot using antibodies to phosphorylated ERK (FIG. 9B).
ERK activation was analyzed at the indicated times by Western Blot, using antibodies to phosphorylated ERK.
(In western blotting, separated proteins are transferred to a membrane and probed.)

Like-named read-outs stand apart in the source and are kept apart here.

`CC(/C=C/C(=O)NO)=C\[C@@H](C)C(=O)c1ccc(N(C)C)cc1` [TSA, Trichostatin A]: in the assay with BMMφ, the “IL-10 production (ELISA)” value was “failed to influence” and the “IL-12 production (ELISA)” value is “substantially inhibit”.
In the case of `C[S+]([O-])c1ccc(-c2nc(-c3ccncc3)c(-c3ccc(F)cc3)[nH]2)cc1` (centres unmarked) [SB203580], in the assay on IL-10 promoter, the “histone H3 phosphorylation at the IL-10 promoter induced by immune complex (ChIP)” value is reported as “decreasing it substantially, but not reducing it to background levels”. The “IL-10 secretion (ELISA)” value in assay [1] (BMMφ pretreated 30 min with PD98059 10 μM, SB203580 1 μM or JNK inhibitory peptide 1 μM, then LPS 10 ng/ml ± E-IgG, supernatants after 20 h) is given as “substantial inhibition”. In addition, the “IL-12 (p40) production (ELISA)” value in assay [1] (BMMφ pretreated 30 min with inhibitor, then LPS 10 ng/ml ± E-IgG, 20 h) is given as “Neither of these inhibitors decreased”. The “LPS-induced IL-10 production” value in assay [1] (BMMφ, LPS 10 ng/ml alone, 20 h, inhibitor pretreatment or 100 nM siRNA) is “prevented”.
For the molecule `CCCCCCCCCCCCCC(=O)O[C@@H]1[C@@H](C)[C@@]2(O)[C@@H](C=C(CO)C[C@]3(O)C(=O)C(C)=C[C@@H]23)[C@@H]2C(C)(C)[C@]12OC(C)=O` [PMA, phorbol 12-myristate 13-acetate], the “ERK activation (phosphorylated ERK, Western blot)” value in the assay with ERK1/2 was “activated”. In addition, the “IL-10 production (ELISA) of LPS-stimulated macrophages in presence of the ERK activator” value in assay [1] is recorded as “induced”.

B1: CSF-1: colony stimulating factor-1, an ERK activating agent identified by the screening method (protein, UniProt P09603 33-554, looked up)
Macrophage colony-stimulating …: EEVSEYCSHMIGSGHLQSLQRLIDSQMETSCQITFEFVDQEQLKDPVCYLKKAFLLVQDIMEDTMRFRDNTPNAIAIVQLQELSLRLKSCFTKDYEEHDKACVRTFYETPLQLLEKVKNVFNETKNLLDKDWNIFSKNCNNSFAECSSQDVVTKPDCNCLYPKAIPSSDPASVSPHQPLAPSMAPVAGLTWEDSEGTEGSSLLPGEQPLHTVDPGSAKQRPPRSTCQSFEPPETPVVKDSTIGGSPQPRPSVGAFNPGMEDILDSAMGTNWVPEEASGEASEIPVPQGTELSPSRPGGGSMQTEPARPSNFLSASSPLPASAKGQQPADVTGTALPRVGPVRPTGQDWNHTPQKTDHPSALLRDPPEPGSPRISSLRPQGLSNPSTLSAQPQLSRSHSSGSVLPLGELEGRRSTRDRRSPAEPEGGPASEGAARPLPRFNSVPLTDTGHERQSEGSFSPQLQESVFHLLVPSVILVLLAVGGLLFYRWRRRSHQEPQRADSPLEQPEGSPLTQDDRQVELPV
Take B1: the “ERK activation (phosphorylated ERK, Western blot)” value with ERK1/2 is “activated”. In assay [1] (LPS plus agent versus LPS alone, CSF-1 100 ng/ml added simultaneously with LPS, IL-10 measured 20 hrs later), the “IL-10 production (ELISA) of LPS-stimulated macrophages in presence of the ERK activator” value is given as “induce more IL-10”. Also, the “IL-10 induction by the agent on its own” value in assay [1] (macrophages without inflammatory stimulus) was “does not induce IL-10 on its own”.
